{
  "source": "patent US20160303112A1",
  "about": "(Laguna Pharmaceuticals, Inc., priority 2013, published 2016)",
  "key": {"[1]": {"experiment": "Plasma concentration of vanoxerine in individual arrhythmia patients (Example 2)", "type": "in vivo, human"}, "[2]": {"experiment": "Adverse events in the placebo-controlled study (Example 6)", "type": "in vivo, human", "excerpt": "The vanoxerine or identical appearing placebo was randomly assigned and administered in a double-blinded fashion."}, "[3]": {"experiment": "Plasma concentrations after a single 300 mg dose of vanoxerine in 25 patients (Example 1)", "type": "in vivo, human", "details": "low concentration group", "method": "Each patient gave samples before administration of their dose, and then again at nine further time points, 30 minutes after administration, 1, 2, 3, 4, 6, 8, 12, and 24 hours post administration."}, "[4]": {"experiment": "Daily doses for 14 days in fourteen healthy patients (Example 4)", "type": "in vivo, human", "details": "25, 75 and 125 mg daily for 14 days", "method": "A standardized meal was served 15 minutes prior to each dosing."}, "[5]": {"details": "human, in vivo, 50 mg", "excerpt": "The results are listed below in Table 7."}, "[6]": {"details": "healthy subjects; cited from earlier work"}, "[7]": {"system": "\"pure\" atrial flutter", "experiment": "Conversion of Atrial Flutter (Example 6)", "type": "in vivo, human", "details": "any time within 24 hours, N 4", "method": "The vanoxerine or identical appearing placebo was randomly assigned and administered in a double-blinded fashion. Definition of “pure” atrial flutter: only Atrial Flutter (no AF) seen at −30, −15, and 0 time points. Conversion at any time within 24 hours."}, "[8]": {"system": "cardiac arrhythmia", "experiment": "Conversion to normal sinus rhythm in individual patients (Example 2)", "type": "in vivo, human", "details": "second patient, supraventricular tachycardia, 200 mg + 200 mg", "method": "Accordingly a further dose was required and administered to the patient. […] Wherein the patient is instructed to utilize a monitoring device with instructions on pricking the finger and providing a blood sample, for testing of the blood. Wherein the plasma concentration has not met at least 60 ng/ml, the second dose is to be taken to ensure that the patient achieves suitable plasma concentrations and converts to normal sinus rhythm."}, "[9]": {"details": "first patient, atrial fibrillation, 200 mg"}, "[10]": {"details": "second patient, supraventricular tachycardia, first 200 mg dose"}, "[11]": {"details": "third patient, premature ventricular contractions, 200 mg"}},
  "data": [
    {"smiles": "Fc1ccc(C(OCCN2CCN(CCCc3ccccc3)CC2)c2ccc(F)cc2)cc1", "note": "[Vanoxerine, 1-[2-[bis(4-fluorophenyl)methoxy]ethyl]-4-(3-phenylpropyl)piperazine]", "values": [
      {"measurement": "maximum concentration in the plasma", "setting": "[1]; [9]", "value": "about 70 ng/ml"},
      {"measurement": "time of maximum concentration post administration", "setting": "[1]; [9]", "value": 60, "unit": "min"},
      {"measurement": "concentration at 180 minutes", "setting": "[1]; human, plasma, second patient, 180 minutes after first dose, further 200 mg given at 120 minutes", "value": 60, "unit": "ng/mL"},
      {"measurement": "maximum concentration in the plasma", "setting": "[1]; [10]", "value": "about 20 ng/ml"},
      {"measurement": "time of maximum concentration post administration", "setting": "[1]; [10]", "value": 60, "unit": "min"},
      {"measurement": "maximum concentration in the plasma", "setting": "[1]; [11]", "value": "about 150 ng/ml"},
      {"measurement": "time of maximum concentration post administration", "setting": "[1]; [11]", "value": 60, "unit": "min"},
      {"measurement": "number of AEs reported", "setting": "[2]; 200 mg (22)", "value": "reporting 8 AEs"},
      {"measurement": "number of SAE", "setting": "[2]; 200 mg (22)", "value": "(1 SAE)"},
      {"measurement": "number of AEs reported", "setting": "[2]; 300 mg (25)", "value": "reporting 12 AEs"},
      {"measurement": "number of AEs reported", "setting": "[2]; 400 mg (25)", "value": 23, "unit": "AEs"},
      {"measurement": "number of SAE", "setting": "[2]; 400 mg (25)", "value": "(1 SAE)"},
      {"measurement": "proarrhythmia", "setting": "[2]; 200, 300, 400 mg", "value": "absence of proarrhythmia"},
      {"measurement": "tolerability", "setting": "[2]; all doses (200, 300, 400 mg)", "value": "well tolerated"},
      {"measurement": "serious adverse events", "setting": "[2]; one at 200 mg, one at 400 mg, neither related to the study drug", "value": "only two serious adverse events"},
      {"measurement": "Highest plasma level at any time point", "setting": "[3]", "value": "~40", "unit": "ng/mL"},
      {"measurement": "steady state serum levels versus dose", "setting": "[4]", "value": "disproportionately and statistically greater levels at higher doses"},
      {"measurement": "TMax", "setting": "[5]", "value": "TMax 1.27 +− 0.5 hr (0.5-2.0)"},
      {"measurement": "serum concentrations", "setting": "[6]", "value": "unexpected fluctuations in serum concentrations"},
      {"measurement": "Conversion of Atrial Flutter", "setting": "[7]; 200 mg", "value": 50, "unit": "%"},
      {"measurement": "Conversion of Atrial Flutter", "setting": "[7]; 300 mg", "value": 75, "unit": "%"},
      {"measurement": "Conversion of Atrial Flutter", "setting": "[7]; 400 mg", "value": 75, "unit": "%"},
      {"measurement": "time of conversion to normal sinus rhythm post administration of the first dose", "setting": "[8]", "value": "about 6 hours"}
    ]}
  ]
}
